From ChEMBL document CHEMBL4007467, “Effects of 6-paradol, an unsaturated ketone from gingers, on cytochrome P450-mediated drug metabolism” (Bioorg Med Chem Lett, 2017)

Assays:
Assay type in all cases: ADME
CYP2B6 [1] = biological target: T1, CYP2B6 (Homo sapiens, UniProt P20813); test: Inhibition of CYP2B6 in human liver microsomes assessed as enzyme-mediated metabolite formation at 3 uM using bupropion as substrate incubated for 5 mins followed by NADPH addition measured after 30 mins by LC-MS/MS analysis relative to control; parameters: scale not given: the % may be the effect or the level left; settings: probe bupropion, read-out: Activity
T1 sequence (P20813 whole entry): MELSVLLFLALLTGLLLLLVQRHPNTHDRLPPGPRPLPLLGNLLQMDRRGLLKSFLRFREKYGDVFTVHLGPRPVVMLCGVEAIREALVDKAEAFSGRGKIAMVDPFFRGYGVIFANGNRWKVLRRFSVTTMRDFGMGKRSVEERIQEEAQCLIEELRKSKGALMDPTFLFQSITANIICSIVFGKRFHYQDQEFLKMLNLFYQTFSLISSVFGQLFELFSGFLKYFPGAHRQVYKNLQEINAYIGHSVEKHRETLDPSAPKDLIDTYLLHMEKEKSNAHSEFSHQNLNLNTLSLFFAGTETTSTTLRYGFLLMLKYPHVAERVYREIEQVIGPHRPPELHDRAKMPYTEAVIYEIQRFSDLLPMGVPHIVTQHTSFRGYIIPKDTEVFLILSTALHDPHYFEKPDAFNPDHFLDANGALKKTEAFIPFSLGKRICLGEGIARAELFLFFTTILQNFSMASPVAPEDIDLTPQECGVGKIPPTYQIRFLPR

Cytochrome P450 2D6 = Cytochrome P450 2D6 (Homo sapiens, UniProt P10635); test: Inhibition of CYP2D6 in human liver microsomes using dextromethorphan as substrate preincubated for 20 mins followed by substrate addition measured after 30 mins in presence of NADPH by LC-MS/MS analysis
Cytochrome P450 2D6, sequence (P10635 whole entry): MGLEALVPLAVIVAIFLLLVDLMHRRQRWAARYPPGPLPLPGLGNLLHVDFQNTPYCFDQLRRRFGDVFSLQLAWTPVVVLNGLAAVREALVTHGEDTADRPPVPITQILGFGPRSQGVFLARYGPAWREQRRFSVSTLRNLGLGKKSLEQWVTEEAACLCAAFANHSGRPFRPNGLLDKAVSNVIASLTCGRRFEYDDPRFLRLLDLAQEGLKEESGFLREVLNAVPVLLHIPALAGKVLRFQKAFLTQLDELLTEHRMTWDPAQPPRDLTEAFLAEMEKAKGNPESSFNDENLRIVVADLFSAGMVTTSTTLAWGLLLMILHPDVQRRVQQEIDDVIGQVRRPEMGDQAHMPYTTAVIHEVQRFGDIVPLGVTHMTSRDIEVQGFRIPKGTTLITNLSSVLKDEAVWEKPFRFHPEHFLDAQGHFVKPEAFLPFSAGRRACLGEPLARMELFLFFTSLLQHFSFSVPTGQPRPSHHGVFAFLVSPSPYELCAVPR

CYP2C8 = biological target: T2, CYP2C8 (Homo sapiens, UniProt P10632); test: Inhibition of CYP2C8 in human liver microsomes assessed as enzyme-mediated metabolite formation at 30 uM using paclitaxel as substrate preincubated for 20 mins followed by substrate addition measured after 30 mins in presence of NADPH by LC-MS/MS analysis relative to control; parameters: scale not given: the % may be the effect or the level left; settings: probe paclitaxel, read-out: Activity
T2 sequence (P10632 whole entry): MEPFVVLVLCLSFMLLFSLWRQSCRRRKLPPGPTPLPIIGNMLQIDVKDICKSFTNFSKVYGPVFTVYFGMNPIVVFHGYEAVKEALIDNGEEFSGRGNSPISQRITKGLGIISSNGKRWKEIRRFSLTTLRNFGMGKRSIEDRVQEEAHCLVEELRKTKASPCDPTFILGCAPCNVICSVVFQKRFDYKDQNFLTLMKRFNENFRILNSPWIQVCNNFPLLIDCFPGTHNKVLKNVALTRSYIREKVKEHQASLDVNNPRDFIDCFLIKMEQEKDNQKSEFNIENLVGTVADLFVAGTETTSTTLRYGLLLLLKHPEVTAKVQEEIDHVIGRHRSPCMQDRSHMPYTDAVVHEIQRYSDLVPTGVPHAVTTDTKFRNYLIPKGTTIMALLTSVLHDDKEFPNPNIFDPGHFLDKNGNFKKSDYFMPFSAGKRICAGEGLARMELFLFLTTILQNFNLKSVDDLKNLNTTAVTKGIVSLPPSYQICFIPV

CYP2C9 = CYP2C9 (Homo sapiens, UniProt P11712); test: Inhibition of CYP2C9 in human liver microsomes assessed as enzyme-mediated metabolite formation at 3 uM using diclofenac as substrate incubated for 5 mins followed by NADPH addition measured after 30 mins by LC-MS/MS analysis relative to control; parameters: scale not given: the % may be the effect or the level left; settings: probe diclofenac, read-out: Activity
CYP2C9, sequence (P11712 whole entry): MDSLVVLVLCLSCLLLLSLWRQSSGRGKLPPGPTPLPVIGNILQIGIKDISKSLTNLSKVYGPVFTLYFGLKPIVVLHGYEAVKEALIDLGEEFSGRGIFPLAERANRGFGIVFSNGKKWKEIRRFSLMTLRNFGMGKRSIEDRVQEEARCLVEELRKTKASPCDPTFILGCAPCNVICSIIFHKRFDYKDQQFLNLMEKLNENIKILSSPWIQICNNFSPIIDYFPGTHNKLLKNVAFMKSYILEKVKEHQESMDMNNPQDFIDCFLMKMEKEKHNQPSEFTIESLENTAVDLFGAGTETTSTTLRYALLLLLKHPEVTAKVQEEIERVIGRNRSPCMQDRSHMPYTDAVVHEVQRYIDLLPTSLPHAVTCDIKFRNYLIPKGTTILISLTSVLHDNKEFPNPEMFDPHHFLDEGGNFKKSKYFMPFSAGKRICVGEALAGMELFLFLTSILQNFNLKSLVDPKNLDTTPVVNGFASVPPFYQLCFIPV

CYP2B6 [2] = biological target: T1, CYP2B6; test: Inhibition of CYP2B6 in human liver microsomes assessed as enzyme-mediated metabolite formation at 0.3 uM using bupropion as substrate preincubated for 20 mins followed by substrate addition measured after 30 mins in presence of NADPH by LC-MS/MS analysis relative to control; parameters: scale not given: the % may be the effect or the level left; settings: probe bupropion, read-out: Activity
Cytochrome P450 2C9 = Cytochrome P450 2C9 (Homo sapiens, UniProt P11712); test: Inhibition of CYP2C9 in human liver microsomes assessed as enzyme-mediated metabolite formation using diclofenac as substrate incubated for 5 mins followed by NADPH addition measured after 30 mins by LC-MS/MS analysis
Cytochrome P450 2C9, sequence (P11712 whole entry): as above

CYP2C19 [3] = biological target: T3, CYP2C19 (Homo sapiens, UniProt P33261); test: Inhibition of CYP2C19 in human liver microsomes assessed as enzyme-mediated metabolite formation at 0.1 uM using (S)-mephenytoin as substrate preincubated for 20 mins followed by substrate addition measured after 30 mins in presence of NADPH by LC-MS/MS analysis relative to control; parameters: scale not given: the % may be the effect or the level left; settings: probe (S)-mephenytoin, read-out: Activity
T3 sequence (P33261 whole entry): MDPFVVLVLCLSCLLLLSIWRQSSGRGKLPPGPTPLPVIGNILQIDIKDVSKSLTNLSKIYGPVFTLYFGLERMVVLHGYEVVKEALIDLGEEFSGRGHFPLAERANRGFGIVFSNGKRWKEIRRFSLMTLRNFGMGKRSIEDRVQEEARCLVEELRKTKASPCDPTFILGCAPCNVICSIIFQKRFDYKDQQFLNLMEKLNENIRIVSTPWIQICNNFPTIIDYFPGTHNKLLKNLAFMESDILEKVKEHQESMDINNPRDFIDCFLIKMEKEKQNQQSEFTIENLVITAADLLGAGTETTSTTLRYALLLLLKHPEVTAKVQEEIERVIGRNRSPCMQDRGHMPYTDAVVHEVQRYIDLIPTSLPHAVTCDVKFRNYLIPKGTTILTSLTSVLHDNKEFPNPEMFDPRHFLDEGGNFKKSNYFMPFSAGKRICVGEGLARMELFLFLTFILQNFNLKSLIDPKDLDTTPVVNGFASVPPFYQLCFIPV

CYP1A2 [4] = biological target: T4, CYP1A2 (Homo sapiens, UniProt P05177); test: Inhibition of CYP1A2 in human liver microsomes assessed as enzyme-mediated metabolite formation at 0.1 uM using phenacetin as substrate preincubated for 20 mins followed by substrate addition measured after 30 mins in presence of NADPH by LC-MS/MS analysis relative to control; parameters: scale not given: the % may be the effect or the level left; settings: probe phenacetin, read-out: Activity
T4 sequence (P05177 whole entry): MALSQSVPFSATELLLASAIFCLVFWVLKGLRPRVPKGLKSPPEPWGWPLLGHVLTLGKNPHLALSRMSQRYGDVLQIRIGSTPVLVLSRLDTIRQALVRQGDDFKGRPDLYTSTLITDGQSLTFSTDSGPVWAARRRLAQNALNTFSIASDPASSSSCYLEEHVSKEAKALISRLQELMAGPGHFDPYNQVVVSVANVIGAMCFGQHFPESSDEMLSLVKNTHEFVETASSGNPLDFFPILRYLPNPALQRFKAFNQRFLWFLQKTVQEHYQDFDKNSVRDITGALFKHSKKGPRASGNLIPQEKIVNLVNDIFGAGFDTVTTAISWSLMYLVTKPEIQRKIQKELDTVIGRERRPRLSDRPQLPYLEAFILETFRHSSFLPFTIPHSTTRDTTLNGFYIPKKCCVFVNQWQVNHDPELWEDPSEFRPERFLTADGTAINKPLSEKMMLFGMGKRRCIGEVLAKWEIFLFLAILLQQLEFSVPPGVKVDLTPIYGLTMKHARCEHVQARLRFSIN

CYP1A2 [5] = biological target: T4, CYP1A2; test: Inhibition of CYP1A2 in human liver microsomes assessed as enzyme-mediated metabolite formation at 10 uM using phenacetin as substrate incubated for 5 mins followed by NADPH addition measured after 30 mins by LC-MS/MS analysis relative to control; parameters: scale not given: the % may be the effect or the level left; settings: probe phenacetin, read-out: Activity
CYP2B6 [6] = biological target: T1, CYP2B6; test: Inhibition of CYP2B6 in human liver microsomes assessed as enzyme-mediated metabolite formation at 0.3 uM using bupropion as substrate incubated for 5 mins followed by NADPH addition measured after 30 mins by LC-MS/MS analysis relative to control; parameters: scale not given: the % may be the effect or the level left; settings: probe bupropion, read-out: Activity
CYP2D6 = CYP2D6 (Homo sapiens, UniProt P10635); test: Inhibition of CYP2D6 in human liver microsomes assessed as enzyme-mediated metabolite formation at 0.1 uM using dextromethorphan as substrate preincubated for 20 mins followed by substrate addition measured after 30 mins in presence of NADPH by LC-MS/MS analysis relative to control; parameters: scale not given: the % may be the effect or the level left; settings: probe dextromethorphan, read-out: Activity
CYP2D6, sequence (P10635 whole entry): as the sequence (P10635 whole entry) above

CYP2C19 [7] = biological target: T3, CYP2C19; test: Inhibition of CYP2C19 in human liver microsomes assessed as enzyme-mediated metabolite formation at 0.3 uM using (S)-mephenytoin as substrate preincubated for 20 mins followed by substrate addition measured after 30 mins in presence of NADPH by LC-MS/MS analysis relative to control; parameters: scale not given: the % may be the effect or the level left; settings: probe (S)-mephenytoin, read-out: Activity

activity at 0.5 h, 3 µM (CYP2B6 [1]): 65.7%
IC50 (Cytochrome P450 2D6): > 30 µM
activity at 0.5 h, 30 µM (CYP2C8): 40.2%
activity at 0.5 h, 3 µM (CYP2C9): 68.1%
activity at 0.5 h, 0.3 µM (CYP2B6 [2]): 81.3%
IC50 (Cytochrome P450 2C9): 13.6 µM
activity at 0.5 h, 0.1 µM (CYP2C19 [3]): 102%
activity at 0.5 h, 0.1 µM (CYP1A2 [4]): 97.2%
activity at 0.5 h, 10 µM (CYP1A2 [5]): 49.7%
activity at 0.5 h, 0.3 µM (CYP2B6 [6]): 68.8%
activity at 0.5 h, 0.1 µM (CYP2D6): 89.5%
activity at 0.5 h, 0.3 µM (CYP2C19 [7]): 81.5%
SMILES: CCCCCCCC(=O)CCc1ccc(O)c(OC)c1
